Measurements reported in patent US12472195B2, “Inhalation formulations of antimicrobial compounds” (priority 2020, dated 2025).
Read-outs that look alike come from different tables or passages of the source.

Columns and labels:
mouse lung tissue = test: Lung histology examination after intratracheal administration in mice
Description: The animal study was approved by the Animal Ethics Committee of the Monash Institute of Pharmaceutical Sciences, Monash University (Parkville, Victoria, Australia). All experiments were conducted in accordance with the Australian Code of Practice for the Care and Use of Animals for Scientific Purposes. Swiss Albino mice (female; age, 6 weeks; body weight, 20 to 25 g) were obtained from the Monash Animal Research Platform (Clayton, Victoria, Australia). […] The animals were housed individually in metabolic cages and had free access to food and water. Mice were intratracheally administered 10 mg/kg of polymyxin B, 60 mg/kg of tobramycin and the combination of tobramycin with polymyxin B in sterile 0.9% saline three times a day and lung histology examination were conducted in a blind manner.

[1] = system: human lung epithelial A549 cells
Description: Human lung epithelial cells (A549 cells) were obtained from American Type Culture Collection (ATCC® CCL-185™, Manassas, VA, USA), grown and sub-cultured in Dulbecco's modified Eagle's medium (DMEM) supplemented with 10% fetal bovine serum (FBS). A549 cells (1×10^5 cells/mL, 12-well plate) were seeded in supplemented DMEM at 37° C. in a humidified atmosphere containing 5% CO2 until 80% confluency. All experiments were conducted in three replicates. Cells were treated with 1.0 mM polymyxin B in the presence and absence of tobramycin (1.0, 3.0, 5.0, 10.0 and 20.0 mM), amikacin (5.0 and 20.0 mM), gentamicin (5.0, 10.0 and 20.0 mM) and plazomicin (5.0 and 20.0 mM) in supplemented DMEM (1% FBS); and cell viability were examined at 24h with flow cytometry after staining with propidium iodide.

[2] = mice, intratracheal, three times a day, 10 mg/kg polymyxin B, 60 mg/kg tobramycin, or both

polymyxin B
area of lung tissue affected by damage (mouse lung tissue; [2]): 25-50% | semi-quantitative score (SQS) of lung histology (mouse lung tissue; [2]): +2 to +5 | cell viability ([1]; 1.0 mM polymyxin B alone, A549 cells, 24h, mean±SD n=3): 40.7±7.4%

NC[C@H]1O[C@H](O[C@H]2[C@H](O)[C@@H](O[C@H]3O[C@H](CO)[C@@H](O)[C@H](N)[C@H]3O)[C@H](N)C[C@@H]2N)[C@H](N)C[C@@H]1O [Tobramycin, tobramycin]
effect on polymyxin B-induced pulmonary toxicity (mouse lung tissue; mouse, in vivo): significantly reduced | cell viability ([1]; human, 24 h, 20 mM): 87.4±1.6%
